Like-named read-outs stand apart in the source and are kept apart here. Each block holds one molecule with its values, some of them ahead of it.
Key:
[1] = reference compound; measured in ethanol; cited from earlier work
[2] = comparative compound, ethanol solution, cited from earlier work
[3] = Fluorescence spectra / fluorescence intensities in solution; type: physicochemical; conditions: 1 μM in water (containing 1% DMSO); excitation at the maximum absorption wavelength; FIG. 40
Protocol: 10. […] 11. […] 12. […] 32. All fluorescence spectra were measured at the […] (FIG. 14). The fluorescence spectra were measured using a Photon Technical International Fluorescence System.
13(a). […] 13 (b, left) and FIG. 13 (b, right). Referring to FIGS. 9 and 13, it can be confirmed that fluorescence intensities of the two-photon absorbing fluorophores (particularly, Compounds 2 to 8) of the present invention in HEPES buffer (containing 1% DMSO, pH 7.4) and water (containing 1% DMSO) are higher than those of the conventional acedan (Compound 1).
In addition, to compare the fluorescence intensities of the compounds in aqueous solution according to a structural change, fluorescence intensities of Compounds 1, 5, and 13 to 18 at the concentration of 1 μM in water (containing 1% DMSO) were compared, and the results are shown in FIG. 40. The fluorescence intensities were measured through excitation of each compound at the maximum absorption wavelength. […] It can be confirmed that, as the degrees of hydrogen bonding of water molecule to the nitrogen atom in Compounds 13 to 17 are reduced, the fluorescence intensities increase.

[4] = Fluorescence quantum yield (reference rhodamine B); type: physicochemical; conditions: water (containing 1% DMSO); FIGS. 15 and 34
Protocol: Further, fluorescence quantum yields of Compounds 1 to 9 in dichloromethane, acetonitrile, and water (containing 1% DMSO) were measured, and the results are shown in FIG. 15. Fluorescence quantum yields of Compounds 10 to 12 in dichloromethane, acetonitrile, and water (containing 1% DMSO) were measured, and the results are shown in FIG. 34. As a reference compound, rhodamine B was used (fluorescence quantum yield, ΦF=0.6, measured in ethanol).

[5] = Two-photon absorption cross-section by two-photon induced fluorescence method; type: physicochemical; conditions: water (containing 1% DMSO); excitation 800 nm, 820 nm, 840 nm; FIG. 35
From the text: Specifically, to confirm the fluorescence properties of the two-photon absorbing fluorophores under two-photon excitation, the inventors measured fluorescence spectra by two-photon excitation using a titanium:sapphire oscillator (Ti:sapphire oscillator), which was pumped by a frequency-doubled neodimium:yttrium orthovanadate laser (Nd:YVO4 laser; Verdi, Coherent) with an output power of 5.0 W. Output pulse energy was 40 nJ, and repetition rate was 380 kHz.
In addition, two-photon absorption cross-section values of each of Compounds 1 and 5 to 7 in dichloromethane solution, acetonitrile solution, and water (containing 1% DMSO) were measured, and the results are shown in FIGS. 28 and 29. Two-photon absorption cross-section values of each of Compounds 10 to 12 in a dichloromethane solution, an acetonitrile solution, and water (containing 1% DMSO) were measured, and the results are shown in FIG. 35. As a comparative compound, rhodamine B generally used as a fluorescent probe was used (two-photon absorption cross-section values, GM=300 (740 nm), 470 (760 nm) and 540 (780 nm), measured in an ethanol solution). Two-photon absorption cross-section values were measured by a two-photon induced fluorescence method (Fischer, A. et al. Applied Optics 1995, 34, 1989), 1 GM refers to 10^−50 cm^4 s photon^−1 molecule^−1.

[6] = Absorbance spectra / molar extinction coefficients at the maximum absorption wavelength; type: physicochemical; conditions: water (containing 1% DMSO), acetonitrile, and dichloromethane; FIG. 33
Protocol: Specifically, to confirm the absorbing properties of two-photon absorbing fluorophores, the inventors measured absorbance spectra for Compounds 1 to 9 at the concentration of 10 μM in HEPES buffer (containing 1% DMSO, pH 7.4) and water (containing 1% DMSO), contained in quartz cells with a light path length of 1 cm, and the results are respectively shown in the left and right graphs of FIG. 2. Absorbance spectra for Compounds 1 to 9 at the concentration of 10 μM in ethanol and acetonitrile were measured, and the results are respectively shown in the left and right graphs of FIG. 3. Absorbance spectra for Compounds 1 to 9 at the concentration of 10 μM in dimethylformamide and dichloromethane were measured, and the results are respectively shown in the left and right graphs of FIG. 4. Absorbance spectra for Compounds 1 to 9 at the concentration of 10 μM in cyclohexane were measured, and the result is shown in FIG. 5. Absorbance spectra for Compounds 10 to 12 at the concentration of 10 μM in water (a, containing 1% DMSO), acetonitrile (b), and dichloromethane (c) were measured, and the results are shown in FIG. 31. The absorbance spectra were measured using a HP 8453 UV/Vis spectrophotometer. […]

SMILES: CCN(CC)c1ccc2c(-c3ccccc3C(=O)O)c3ccc(=[N+](CC)CC)cc-3oc2c1.[Cl-] [rhodamine B]
fluorescence quantum yield, ΦF [1]: 0.6
two-photon absorption cross-section value ([2]; 740 nm): 300 GM
two-photon absorption cross-section value ([2]; 760 nm): 470 GM
two-photon absorption cross-section value ([2]; 780 nm): 540 GM

fluorescence intensities [3]: increase of fluorescence intensity
SMILES: CC(=O)c1ccc2cc(N3CCCC3)ccc2c1 [Compound 18]

melting point: 149 to 151 °C
SMILES: CC(=O)c1ccc2cc(N3CCOCC3)ccc2c1 [Compound 8, 1-(6-morpholinonaphthalen-2-yl)ethanone]

melting point: 182 °C
SMILES: CNc1ccc2cc(C(C)=O)ccc2c1 [Compound 4, 1-(6-(methylamino)naphthalen-2-yl)ethanone]

SMILES: O=C1c2cccc3c(NC4CCC(O)CC4)ccc(c23)C(=O)N1CCO (centres unmarked) [Compound 10, 6-(4-hydroxycyclohexylamino)-2-(2-hydroxyethyl)-1H-benzo[de]isoquinoline-1,3(2H)-dione]
fluorescence quantum yield [4]: higher than those of the conventional Compounds 11 and 12
two-photon absorption cross-section value [5]: higher than those of the conventional Compounds 11 and 12
molar extinction coefficients [6]: higher than those of the conventional Compound 11 (Formula 11) and Compound 12 (Formula 12)

melting point: 186 to 188 °C
SMILES: CC(=O)c1ccc2cc(NC3CCC(O)CC3)ccc2c1 (centres unmarked) [Compound 5, 1-(6-(4-hydroxycyclohexylamino)naphthalen-2-yl)ethanone]

melting point: 112 to 114 °C
SMILES: CC(=O)c1ccc2cc(NC(C)C)ccc2c1 [Compound 3, 1-(6-(isopropylamino)naphthalen-2-yl)ethanone]

melting point: 192 to 194 °C
SMILES: CC(=O)c1ccc2cc(N(C)C3CCC(O)CC3)ccc2c1 (centres unmarked) [Compound 9, 1-(6-((4-hydroxycyclohexyl)(methyl)amino)naphthalen-2-yl)ethanone]

melting point: 118 to 120 °C
SMILES: CC(=O)c1ccc2cc(N3C4CCC3CC4)ccc2c1

Source: US20170327509A1, “TWO-PHOTON ABSORBING FLUOROPHORES AND METHOD FOR CELLULAR IMAGING USING THE SAME” (POSTECH ACADEMY-INDUSTRY FOUNDATION, priority 2014, published 2017)
